Structures are written as SMILES. Bounds are passed on as bounds.

System in the first series: not listed separately
Put plainly: Pharmacokinetic evaluation in ICR mice, intravenous. Type of series: in vivo. The settings on record: mouse; ICR male mice, 1.0 mg/kg intravenous, plasma. As to the method: A test compound (1.0 mg/kg) was administered to fasted ICR male mice via intravenous injection, and blood samples were collected at time points of 0.08, 0.25, 0.5, 1, 2, 4, 6, 8 and 24 h after the administration. Plasma sample was separated by centrifugation (8000 rpm) and stored at −80° C. until the sample was analyzed. Concentrations of the test compound in the plasma were determined by HPLC-MS/MS: the plasma was dispensed into appropriate tubes containing internal standard and methanol or acetonitrile. The tubes were mixed vigorously for 3 minutes to achieve deproteinization and then centrifuged at 8000 rpm for 5 minutes. The supernatant was transferred to an autosampler vial, injected into the chromatographic system, and quantified on MS/MS detector. Pharmacokinetic parameters including AUC0-t, Cmax, Tmax, t1/2, MRT, Cl and Vd were calculated using WinNonlin 6.3 software. Table 3 summarizes key PK parameters for test compounds (AUC(0-t): the area under the curve from time 0 to time t; AUC(0-∞): the area under the curve from time 0 to infinity; t1/2: Half-life; CL: clearance; C0: the concentration of drug in blood if the drug molecules enter the circulation and are distributed immediately (i.e., at time 0)).
Usually AUC(0-inf) stands for the area under the concentration-time curve extrapolated to infinity. Higher therefore signals high exposure. For orientation: AUC(0-t) means the area under the concentration-time curve up to a stated or last time point. Lower therefore signals less exposure. By Cmax is commonly meant the highest concentration seen after dosing. One may read the half-life as the time needed for the level to fall by half in the phase considered. Higher therefore signals slow decline. As for `O=P(O)(O)CP(=O)(O)OC[C@H]1O[C@@H](n2cnc3c(N4CC5(CCCCCC5)c5ccccc54)nc(Cl)nc32)[C@@H](O)C1O` (stereo partly drawn) [d-22], the AUC(0-inf) stood at 167000 ng·h/mL, the AUC(0-t) came out at 74100 ng·h/mL, the Cmax turned out to be 8030 ng/mL and the half-life is 28.9 h.

In turn, `O=P(O)(O)CP(=O)(O)OC[C@H]1O[C@@H](n2cnc3c(N4CCC5(CCCc6ccccc65)C4)nc(Cl)nc32)[C@@H](O)C1O` (stereo partly drawn) [d-6] showed an AUC(0-inf) of 6680 ng·h/mL, an AUC(0-t) of 6670 ng·h/mL, a Cmax of 7840 ng/mL and a half-life of 0.841 h.

For `C[C@H](Nc1cc(Cl)nc2c1cnn2[C@@H]1O[C@H](COP(=O)(O)CP(=O)(O)O)[C@@H](O)[C@H]1O)c1ccccc1F` [Compound a, AB680, reference compound], the AUC(0-inf) came to 24200 ng·h/mL, the AUC(0-t) was 24000 ng·h/mL, the Cmax came out at 11700 ng/mL and the half-life was 3.41 h.

The target in another series is CD73 (Homo sapiens (Human), UniProt P21589). Put plainly: CD73 enzyme inhibition assay (Malachite Green Phosphate Detection Kit). The settings on record: CD73 protein 0.5 μg/mL (2x), Tris-HCl pH 7.3, OD 620 nm; read-out: Potency (IC50 class), inhibitory activity in CD73 enzyme assay. Type of series: biochemical. As to the method: To evaluate the inhibitory effect of selected compounds on CD73, Malachite Green Phosphate Detection Kit (R&D, Cat #DY996) was used. Briefly, compounds were dissolved and diluted to the desired concentration using phosphate-free buffer (Tris-HCl, pH 7.3). 25 μL of the compound solution was added to an equal volume of CD73 protein solution (2× concentration, 0.5 μg/mL, Novoprotein, Cat #C446), followed by a 5-minute incubation at room temperature. 10 μL of Malachite Green Reagent A was added to each well, mixed thoroughly and incubated for 10 minutes at room temperature. 10 μL of Malachite Green Reagent B was then added to each well, mixed thoroughly and incubated for 20 minutes at room temperature. Finally, the optical density of each well was determined using a microplate reader set to 620 nm.
Chain of CD73 (P21589 27-574): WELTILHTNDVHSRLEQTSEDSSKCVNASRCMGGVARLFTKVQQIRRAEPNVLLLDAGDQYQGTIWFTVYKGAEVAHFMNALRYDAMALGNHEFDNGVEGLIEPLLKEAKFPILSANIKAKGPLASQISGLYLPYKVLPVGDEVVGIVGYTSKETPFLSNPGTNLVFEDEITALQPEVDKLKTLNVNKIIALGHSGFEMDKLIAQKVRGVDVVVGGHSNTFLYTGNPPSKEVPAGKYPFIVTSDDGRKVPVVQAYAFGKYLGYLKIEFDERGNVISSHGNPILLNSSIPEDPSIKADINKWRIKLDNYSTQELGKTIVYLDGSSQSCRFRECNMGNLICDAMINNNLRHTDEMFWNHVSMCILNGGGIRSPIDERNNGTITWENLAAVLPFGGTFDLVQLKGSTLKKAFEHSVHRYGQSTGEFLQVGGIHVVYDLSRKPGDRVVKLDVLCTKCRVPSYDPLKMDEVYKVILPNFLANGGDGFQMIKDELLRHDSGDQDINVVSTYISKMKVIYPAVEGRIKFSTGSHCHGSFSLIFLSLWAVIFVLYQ
Broadly, the IC50 is the concentration that gives 50% inhibition. Turning to `O=P(O)(O)CP(=O)(O)OC[C@H]1O[C@@H](n2cnc3c(-n4c5ccccc5c5ccccc54)nc(Cl)nc32)C(O)C1O` (stereo partly shown) [Compound 10], the IC50 is 10 to 100 nM.

As to `CCCCC/C=C\C/C=C\CCCCCCCC(=O)Nc1nc(Cl)nc2c1ncn2[C@@H]1O[C@H](COP(=O)(O)CP(=O)(O)O)C(O)C1O` (stereo partly shown) [Compound 11], the IC50 is 10 to 100 nM.

Turning to `CCCCCCCCCCCCN(CCCCCCCCCCCC)c1nc(Cl)nc2c1ncn2[C@@H]1O[C@H](COP(=O)(O)CP(=O)(O)O)C(O)[C@@H]1O` (stereo partly shown) [Compound 19], the IC50 is more than 100 nM.

Take `CC1(C)OC2C(O1)[C@@H](COP(=O)(O)CP(=O)(O)O)O[C@H]2n1cnc2c(NCc3ccccc3)nc(Cl)nc21` (stereo partly shown) [Compound 2]: the IC50 is 10 to 100 nM.

For the compound `CC1(C)[C@@H]2CC[C@@]1(C)C(OC(=O)Cc1nc(Cl)nc3c1ncn3[C@@H]1O[C@H](COP(=O)(O)CP(=O)(O)O)C(O)C1O)C2` (stereo partly shown) [Compound 23], the IC50 lay in the range of 10 to 100 nM.

On to `C[C@]12C[C@@H]3C[C@](C)(C1)C[C@@](Nc1nc(Cl)nc4c1ncn4[C@@H]1O[C@H](COP(=O)(O)CP(=O)(O)O)C(O)[C@@H]1O)(C3)C2` (stereo partly shown) [Compound 9], for which the IC50 is less than 10 nM.

For `CCCCCOC(=O)Nc1nc(Cl)nc2c1ncn2[C@@H]1O[C@H](COP(=O)(O)CP(=O)(O)O)C(O)C1O` (stereo partly shown) [Compound 8], the IC50 lay in the range of 10 to 100 nM.

For `O=C(CC12CC3CC(CC(C3)C1)C2)Nc1nc(Cl)nc2c1ncn2[C@@H]1O[C@H](COP(=O)(O)CP(=O)(O)O)C(O)[C@@H]1O` (stereo partly shown) [Compound 16], the IC50 lay in the range of 10 to 100 nM.

`O=P(O)(O)CP(=O)(O)OC[C@H]1O[C@@H](n2cnc3c(NCc4ccc5ccccc5c4)nc(Cl)nc32)[C@@H](O)C1O` (stereo partly shown) [Compound 7]: the IC50 is less than 10 nM.

In the case of `O=P(O)(O)CP(=O)(O)OC[C@H]1O[C@@H](n2cnc3c(Nc4ccc5ccccc5c4)nc(Cl)nc32)C(O)C1O` (stereo partly shown) [Compound 12], the IC50 lay within 10 to 100 nM.

Consider `O=P(O)(O)CP(=O)(O)OC[C@H]1O[C@@H](n2cnc3c(N4C5CCC4CC(O)C5)nc(Cl)nc32)[C@@H](O)C1O` (stereo partly shown) [Compound 51], for which the IC50 is less than 10 nM.

In the case of `O=P(O)(O)CP(=O)(O)OC[C@H]1O[C@@H](n2cnc3c(NCc4ccccc4)nc(Cl)nc32)[C@@H](O)C1O` (stereo partly shown) [Compound 1], the IC50 was less than 10 nM.

On to `O=P(O)(O)CP(=O)(O)OC[C@H]1O[C@@H](n2cnc3c(N4CCC5(CCCCC5)C4)nc(Cl)nc32)[C@@H](O)C1O` (stereo partly shown) [Compound 31], for which the IC50 was less than 10 nM.

Turning to `O=P(O)(O)CP(=O)(O)OC[C@H]1O[C@@H](n2cnc3c(NCc4cccc5ccccc45)nc(Cl)nc32)[C@@H](O)C1O` (stereo partly shown) [Compound 6], the IC50 is less than 10 nM.

For `CCCCCCCCCCCCNC(=O)Nc1nc(Cl)nc2c1ncn2[C@@H]1O[C@H](COP(=O)(O)CP(=O)(O)O)C(O)C1O` (stereo partly shown) [Compound 18], the IC50 fell in the range of 10 to 100 nM.

Still in this series, the particulars now being: qualitative statement.
With `C[C@]12C[C@@H]3C[C@](C)(C1)C[C@@](Nc1nc(Cl)nc4c1ncn4[C@@H]1O[C@H](CCP(=O)(O)CP(=O)(O)O)C(O)[C@@H]1O)(C3)C2` (stereo partly shown) [a-9], the “inhibitory activity in the CD73 enzyme assay” value is “showed inhibitory activity”.

The record behind these values is patent US20230295213A1, “CD73 INHIBITORS AND PHARMACEUTICAL USES THEREOF” (RISEN (SUZHOU) PHARMA TECH CO., LTD., priority 2018, published 2023).
